In PubChem BioAssay (NCI) one finds TGI data, which are given here for eight compounds.

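Results reflect a 48-hour exposure of cells in 96-well plates to compound at five concentrations. TGI: concentration producing complete growth inhibition.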

Some test systems named below: UO-31 renal; SW-620 colon; ACHN renal; UACC-62 melanoma; UACC-257 melanoma; RXF 393 renal; U251 CNS; PC-3 prostate; EKVX NSCLC; SK-OV-3 ovarian; MDA-MB-231 breast; HT29 colon; A498 renal; OVCAR-3 ovarian; SK-MEL-28 melanoma; OVCAR-4 ovarian; LOX IMVI melanoma; HCT-116 colon; MCF7 breast; TK-10 renal.
Assay in all cases: growth of human tumour cells (NCI), 48 h

As for `CO[C@H]1O[C@@H]2OC3(C)CCC4[C@H](C)CCC([C@H]1C)[C@]42OO3` (some centres not stated), the TGI in the experiment on UO-31 renal, in the experiment on SW-620 colon, in the experiment with ACHN renal, with UACC-62 melanoma, in the experiment on UACC-257 melanoma and with RXF 393 renal was > 100 µM throughout. Moreover, the TGI in the experiment on U251 CNS, in the experiment on PC-3 prostate, in the experiment on EKVX NSCLC, in the experiment on SK-OV-3 ovarian, in the experiment with MDA-MB-231 breast and with HT29 colon was > 100 µM throughout. Besides, the TGI with A498 renal, with OVCAR-3 ovarian, with SK-MEL-28 melanoma, in the experiment with OVCAR-4 ovarian, in the experiment with LOX IMVI melanoma and in the experiment with HCT-116 colon was > 100 µM throughout.

For the compound `O=C1CCCC2=C1CC1=C(CCCC1=O)N2c1ccc([N+](=O)[O-])cc1`, the TGI with UO-31 renal, with SW-620 colon, in the experiment on ACHN renal, in the experiment on MCF7 breast, in the experiment with UACC-62 melanoma and with RXF 393 renal was > 100 µM each time. The TGI with U251 CNS, with PC-3 prostate, in the experiment on TK-10 renal, with EKVX NSCLC, in the experiment on SK-OV-3 ovarian and in the experiment on HT29 colon was > 100 µM throughout. In addition, the TGI in the experiment with A498 renal, with OVCAR-3 ovarian, in the experiment with SK-MEL-28 melanoma, in the experiment on OVCAR-4 ovarian and in the experiment on LOX IMVI melanoma was > 100 µM throughout.

Turning to `C/C1=C/C[C@@H](/C(C)=C/c2csc(C)n2)OC(=O)C[C@H](O)C(C)(C)C(=O)[C@H](C)[C@@H](O)[C@@H](C)CCC1`, the TGI with UO-31 renal was 0.181 µM; in the experiment with SW-620 colon, 0.24 µM; in the experiment with ACHN renal, 0.323 µM; in the experiment on MCF7 breast it was 0.231 µM; in the experiment on UACC-62 melanoma, 0.247 µM; in the experiment on RXF 393 renal, < 0.0001 µM. The TGI in the experiment on U251 CNS was determined as 0.169 µM; with PC-3 prostate, 0.193 µM; with TK-10 renal, 0.4 µM; in the experiment on EKVX NSCLC, 0.215 µM; in the experiment with SK-OV-3 ovarian it was 0.214 µM; with HT29 colon, 0.335 µM. Also, the TGI came out at 0.173 µM with OVCAR-3 ovarian, 0.472 µM in the experiment with OVCAR-4 ovarian, 0.143 µM in the experiment on LOX IMVI melanoma and 0.173 µM in the experiment on HCT-116 colon.

`CC1CCC2CC1NC(=O)CCOCCC(=O)NC2(C)C` (configuration not stated): the TGI in the experiment on UO-31 renal, in the experiment on SW-620 colon, with MCF7 breast, in the experiment with UACC-62 melanoma, in the experiment on UACC-257 melanoma and with U251 CNS was > 100 µM in each case. The TGI with PC-3 prostate, in the experiment on TK-10 renal, with EKVX NSCLC, in the experiment with SK-OV-3 ovarian, with MDA-MB-231 breast and with HT29 colon was > 100 µM throughout. Besides, the TGI with OVCAR-3 ovarian, in the experiment with SK-MEL-28 melanoma, in the experiment with OVCAR-4 ovarian, in the experiment on LOX IMVI melanoma and in the experiment with HCT-116 colon was > 100 µM throughout.

For the compound `COc1ccc2[nH]c3c4c(cc(-c5ccccc5)c3c2c1)C(=O)N(c1ccccc1)C4=O`, the TGI with UO-31 renal was > 72 µM; in the experiment with SW-620 colon it was > 100 µM; in the experiment on ACHN renal, > 100 µM; with UACC-62 melanoma, > 90.6 µM; in the experiment with UACC-257 melanoma, > 100 µM; in the experiment on RXF 393 renal it was 69.7 µM. The TGI is 36.7 µM in the experiment with U251 CNS; > 100 µM with TK-10 renal; > 100 µM with EKVX NSCLC; > 93.1 µM with SK-OV-3 ovarian; > 100 µM with HT29 colon; > 73.8 µM in the experiment on A498 renal. The TGI was 55.2 µM in the experiment on OVCAR-3 ovarian; > 100 µM in the experiment on SK-MEL-28 melanoma; 3.56 µM in the experiment with OVCAR-4 ovarian; > 92 µM with LOX IMVI melanoma; > 100 µM with HCT-116 colon.

Turning to `CCCn1c(=O)c2nn3c(=O)n(CCC)c(=O)c3nn2c1=O`, the TGI with UO-31 renal, in the experiment with SW-620 colon, with ACHN renal, with MCF7 breast, with UACC-62 melanoma and in the experiment on UACC-257 melanoma was > 100 µM each time. Further, the TGI in the experiment on RXF 393 renal, in the experiment on U251 CNS, with PC-3 prostate, with TK-10 renal, with EKVX NSCLC and in the experiment with SK-OV-3 ovarian was > 100 µM in each case. In addition, the TGI in the experiment with HT29 colon, in the experiment with OVCAR-3 ovarian, with SK-MEL-28 melanoma, in the experiment with OVCAR-4 ovarian, in the experiment with LOX IMVI melanoma and with HCT-116 colon was > 100 µM each time.

Turning to `COC1=CC(=O)c2c(cc3c(c2O)-c2c(OC)cc4cc5c(c(O)c4c2OC(=O)CC(C)(O)C3)C(=O)CC(C)(O)C5)C1=O` (configuration not stated), the TGI stood at 3.71 µM in the experiment with UO-31 renal; 6.3 µM with SW-620 colon; 8.35 µM in the experiment with ACHN renal; 2.57 µM with UACC-62 melanoma; 5.34 µM in the experiment with UACC-257 melanoma; 3.89 µM in the experiment on RXF 393 renal. The TGI amounted to 9.92 µM in the experiment on U251 CNS; 14.2 µM with TK-10 renal; 5.58 µM in the experiment with EKVX NSCLC; 7.47 µM in the experiment with SK-OV-3 ovarian; 6.59 µM in the experiment on HT29 colon; 4.42 µM in the experiment with A498 renal. Moreover, the TGI in the experiment with OVCAR-3 ovarian was found to be 2.15 µM; with SK-MEL-28 melanoma, 4.36 µM; in the experiment with OVCAR-4 ovarian, 10.3 µM; with LOX IMVI melanoma, 2.94 µM; with HCT-116 colon it was 7.58 µM.

For the compound `CC(C)(CN1CCCCC1)C(=O)CC(SCCN)c1ccc(Cl)cc1` (configuration not stated), the TGI in the experiment on UO-31 renal was 13.3 µM; in the experiment on SW-620 colon, 3.94 µM; in the experiment with ACHN renal, 9.85 µM; with UACC-62 melanoma it was 3.56 µM; with UACC-257 melanoma it was 7.41 µM; with RXF 393 renal, 5.94 µM. For the same compound, the TGI turned out to be 11.7 µM with U251 CNS; 5.19 µM in the experiment on TK-10 renal; 4.53 µM in the experiment on EKVX NSCLC; 7.83 µM in the experiment on SK-OV-3 ovarian; 5.07 µM with HT29 colon; 6.65 µM with A498 renal. Besides, the TGI turned out to be 3.96 µM in the experiment on OVCAR-3 ovarian; 13 µM in the experiment on SK-MEL-28 melanoma; 10.1 µM in the experiment on OVCAR-4 ovarian; 4.85 µM with LOX IMVI melanoma; 7.61 µM with HCT-116 colon.
